This note sets out measurements from patent US11014895B2, “Heterocyclic urea compound, and drug composition and application thereof” (CHINA PHARMACEUTICAL UNIVERSITY, priority 2017, dated 2021).

Assay [1] has as its target T1, IDO1 enzyme in the Hela cell (Homo sapiens, UniProt P14902).
T1 construct: endogenous in cells; host or cells: HeLa cells stimulated with interferon γ (100 ng/ml)
The experiment in a line: Cell activity: interferon γ-stimulated Hela cells, absorbance of supernatant at 480 nm. The format is cell-based. Conditions: interferon γ 100 ng/ml, 72 hours. In outline: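 Kynurenine-type readout: supernatant from IFN-γ-stimulated (100 ng/ml final) HeLa cells, 72 h with compound, was acid-hydrolysed with trichloroacetic acid (50 °C, 30 min). After centrifugation, 2% dimethylaminobenzaldehyde/acetic acid added and absorbance measured at 480 nm.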

In the next assay the target is IDO1 enzyme (Homo sapiens, UniProt P14902). Kind of assay: Determination of biochemical activity of IDO1 enzyme (absorbance at 320 nm). Particulars: room temperature, 3 hours. In outline:
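Absorbance at 320 nm was measured after a 3-hour room-temperature reaction of enzyme with compound. Phosphate buffer at pH 7-8 was used; inhibition was derived from the absorption ratio and fitted to IC50.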

T1 sequence (P14902 whole entry): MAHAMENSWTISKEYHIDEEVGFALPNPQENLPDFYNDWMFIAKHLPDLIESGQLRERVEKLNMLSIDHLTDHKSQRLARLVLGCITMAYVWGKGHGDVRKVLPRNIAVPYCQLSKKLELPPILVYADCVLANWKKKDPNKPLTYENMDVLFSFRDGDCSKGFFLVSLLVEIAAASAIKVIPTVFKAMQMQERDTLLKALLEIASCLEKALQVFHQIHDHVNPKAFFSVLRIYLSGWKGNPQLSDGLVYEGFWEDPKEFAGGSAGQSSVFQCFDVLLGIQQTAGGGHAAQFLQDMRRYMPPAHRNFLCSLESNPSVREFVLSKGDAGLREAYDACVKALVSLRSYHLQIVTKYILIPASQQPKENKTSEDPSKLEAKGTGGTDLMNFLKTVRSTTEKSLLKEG
Sequence of IDO1 enzyme (P14902 whole entry): as above

In the case of `O=C(Nc1nocc1/C(=N/O)Nc1ccc(F)c(Br)c1)NC1CCNCC1` [Embodiment 85, (Z)-1-(4-(N-(3-bromo-4-fluorophenyl)-N′-hydroxyaminoiminomethyl)-isoxazole-3-substituted)-3-(piperidine-4-substituted)urea], the half-inhibitory concentration (IC50) (in assay [1]; on IDO1 enzyme) was less than 0.001 µM each time.

With `NCCNC(=O)Nc1nonc1/C(=N/O)Nc1ccc(F)c(Br)c1` [Embodiment 16, (Z)-1-(4-(N-(3-bromo-4-fluorophenyl)-N′-hydroxyaminoiminomethyl)-1,2,5-oxadiazole-3-substituted)-3-(2-aminoethyl)urea], the half-maximal inhibitory concentration (IC50) (in assay [1]; against IDO1 enzyme) was 0.1 to 1 µM each time.

In the case of `O=C(Nc1conc1/C(=N/O)Nc1ccc(F)c(Br)c1)NC1CC1` [Embodiment 107, (Z)-1-(4-(N-(3-bromo-4-fluorophenyl)-N′-hydroxyaminoiminomethyl)-isoxazole-3-substituted)-4-cyclopropylurea], the 50% inhibitory concentration (IC50) (in assay [1]; at IDO1 enzyme) was more than 1 µM in each case.

For the compound `O/N=C(\Nc1ccc(F)c(Br)c1)c1conc1NC(=S)NC1CCCCC1` [Embodiment 135, (Z)-1-(4-(N-(3-bromo-4-fluorophenyl)-N′-hydroxyaminoiminomethyl)-isoxazole-3-substituted)-3-(cyclohexyl)thiourea], the IC50 (in assay [1]; against IDO1 enzyme) was 0.1 to 1 µM each time.

On to `N=C(Nc1nocc1/C(=N/O)Nc1ccc(F)c(Br)c1)NC1CCCCC1` [Embodiment 159, (Z)-1-(4-(N-(3-bromo-4-fluorophenyl)-N′-hydroxyaminoiminomethyl)-isoxazole-3-substituted)-3-cyclohexylguanidine], for which the 50% inhibitory concentration (IC50) (in assay [1]; at IDO1 enzyme) was 0.1 to 1 µM each time.

For the compound `Cc1ccc(NC(=O)Nc2nonc2/C(=N/O)Nc2ccc(F)c(Br)c2)cc1` [Embodiment 4], the IC50 (in assay [1]; against IDO1 enzyme) was more than 1 µM in each case.

Consider `O=C(Nc1ccc(O)cc1)Nc1nonc1/C(=N/O)Nc1ccc(F)c(Cl)c1` [Embodiment 23], for which the concentration for half-maximal inhibition (IC50) (in assay [1]; at IDO1 enzyme) was less than 0.001 µM throughout.

Take `O=C(Nc1nonc1/C(=N/O)Nc1ccc(F)c(Cl)c1)NC1CCCCC1` [Embodiment 25, (Z)-1-(4-(N-(3-chloro-4-fluorophenyl)-N′-hydroxyaminoiminomethyl)-1,2,5-oxadiazole-3-substituted)-3-cyclohexylurea]: the IC50 (in assay [1]; against IDO1 enzyme) was 0.1 to 1 µM in each case.

Regarding `COc1ccc(NC(=N)Nc2nonc2/C(=N/O)Nc2ccc(F)c(Br)c2)c(F)c1` [Embodiment 144], the half-maximal inhibitory concentration (IC50) (in assay [1]; against IDO1 enzyme) was 0.1 to 1 µM in each case.

As for `O=C(Nc1nocc1/C(=N/O)Nc1ccc(F)c(Br)c1)NC1CCC(O)CC1` (stereo not shown) [Embodiment 84, (Z)-1-(4-(N-(3-bromo-4-fluorophenyl)-N′-hydroxyaminoiminomethyl)-isoxazole-3-substituted)-3-(4-hydroxycyclohexyl)urea], the half-inhibitory concentration (IC50) (in assay [1]; on IDO1 enzyme) was 0.1 to 1 µM in each case.

As to `CC(C)NC(=O)Nc1cocc1/C(=N/O)Nc1ccc(F)c(Br)c1` [Embodiment 71, (Z)-1-(4-(N-(3-bromo-4-fluorophenyl)-N′-hydroxyaminoiminomethyl)-furan-3-substituted)-3-isopropylurea], the IC50 (in assay [1]; against IDO1 enzyme) was 0.1 to 1 µM throughout.

As to `COc1ccc(NC(=O)Nc2nonc2/C(=N/O)Nc2ccc(F)c(Cl)c2)cc1` [Embodiment 22, (Z)-1-(4-(N-(3-chloro-4-fluorophenyl)-N′-hydroxyaminoiminomethyl)-1,2,5-oxadiazole-3-substituted)-3-(4-methoxyphenyl)urea], the half-inhibitory concentration (IC50) (in assay [1]; against IDO1 enzyme) was 0.1 to 1 µM throughout.

For `COc1ccc(NC(=O)Nc2cocc2/C(=N/O)Nc2ccc(F)c(Br)c2)cc1` [Embodiment 58, (Z)-1-(4-(N-(3-bromo-4-fluorophenyl)-N′-hydroxyaminoiminomethyl)-furan-3-substituted)-3-(4-methoxyphenyl)urea], the IC50 (in assay [1]; against IDO1 enzyme) was 0.1 to 1 µM throughout.

With `O=C(Nc1ccncc1)Nc1nonc1/C(=N/O)Nc1ccc(F)c(Br)c1` [Embodiment 35], the half-inhibitory concentration (IC50) (in assay [1]; against IDO1 enzyme) was 0.1 to 1 µM throughout.
